# Values of other authors, collected in US20040223951A1, “Combination therapy for cancer” (Schering Corporation, priority 2000, published 2004).
# Tests used:
# [1] = administered orally
structure (smiles),measurement,setting,value
"Cn1nnc2c(C(N)=O)ncn2c1=O [Temozolomide, 3,4-dihydro-3-methyl-4-oxoimidazo-[5,1-d]1,2,3,4-tetrazin-8-carboximide]",bioavailability,[1],approximately 100%
same,"clinical response, % of patients with advanced melanoma","advanced melanoma; Journal of Clinical Oncology, Vol. 13, No. 4, 1995, pp. 910-913",21%
same,"clinical responses, % of patients having advanced melanoma","advanced melanoma; Newlands ES, et al., Br J Cancer 65 (2) 287-291, 1992",17%
same,plasma concentration of active metabolite MTIC versus conventional dosing,"extended daily dosing of TMZ, Brock et al. Cancer Res. 1998;58:4363",higher plasma concentration of the active metabolite MTIC than conventional dosing
same,plasma concentrations of MTIC versus DTIC,oral TMZ compared with IV DTIC,higher plasma concentrations of MTIC than IV administration of DTIC
